The values that follow are results of earlier work, collected in patent US11931454B2, “Wet-packed soft hydrogel ocular inserts” (Alcon Inc., priority 2019, dated 2024).

Some results are limits rather than exact numbers.

For the data set the following is noted: arylboronic acid group of the monomer.

Broadly, the pKa is the negative logarithm of the acid dissociation constant. On to 3-(meth)acrylamidophenylboronic acid, for which the pKa is roughly 8.2.

“4-(1,6-Dioxo-2,5-diaza-7-oxamyl)phenylboronic acid”: the pKa is reported as roughly 7.8.

As for `C=Cc1ccc(CN(C)C)c(B(O)O)c1` [2-Dimethylaminomethyl-5-vinylphenylboronic acid], the pKa was less than 7.8.

With `C=CCCS(=O)(=O)c1ccc(B(O)O)cc1` [4-(3-Butenylsulfonyl)phenylboronic acid], the pKa is given as roughly 7.1.

For the compound `C=CCNS(=O)(=O)c1ccc(B(O)O)cc1` [4-(N-allylsulfamoyl)phenylboronic acid], the pKa was roughly 7.4.
